Converted amounts (≈) assume the structure as drawn. “Also recorded” adds a separate entry of the source.
Assays:
[1] = system: certain parasites; details: background; cited from earlier work
[2] = background; cited from earlier work
[3] = system: L. donovani; test: Antileishmanial activity in animals (mouse model of visceral leishmaniasis); type: in vivo, Leishmania donovani; details: mice; for LDUs in Liver / Suppression (%): one week
Method: Antiparasitic activity of the compounds of the invention in animals against L. donovani was determined in a manner similar to that previously described J. S. Keithly and S. G. Langreth, Amer. J. Trop. Med. Hyg., 32, 485 (1983) for a hamster model. Briefly, mice were infected with 5×10^7 stationary phase promastigotes subcultured in Schneider's drosophila medium with 15% heat inactivated fetal bovine serum. The compounds of the invention were administered by gavage nine days after infection and continued for one week. Positive controls received Pentostam intraperitoneally. Infected, untreated controls received water orally but no intraperitoneal sham injections. Mice were necropsied sixteen days after infection (seven days after the beginning of drug treatment).
% Suppression = 100 100(LDUs of experimental/LDUs of control)

[4] = system: Leishmania donovani; test: In vitro antiparasitic activity against Leishmania donovani; type: cell-based; details: for IC50: Leishmania donovani, 120 h, 5 days at 26° C., read-out: ED50 (the source's name)
Method: (§1) The antiparasitic activities of the 1-(5'-0-sulfamoyl-β-D-ribofuranosyl)[1,2,4]triazolo 3-carboxamide, 3-thiocarboxamide and 3-carbonitrile compounds of the invention are shown in various in vitro and in vivo systems. […] These are representative of the protozoan diseases: leishmaniasis, trypanosomiasis, giardiasis and trichomoniasis.
(§2) Leishmania donovani (ATCC #30142)) and Trypanosoma qambiense (TH114, obtained from R. Brun, Schweizer Tropeninstitut, Basel, Switzerland) were grown in THOSMEM, HOSMEM and PPDM-79 media respectively as described in J. J. Marr, R. L. Berens and D. J. Nelson, J. Science. 202, 1018 (1978), J. J. Marr, D. J. Nelson and R. L. Berens, Biochim. Biophys. Acta, 544, 360 (1978) and W. R. Fish, J. J. Marr and R. L. Berens, Biochim. Biophys. Acta, 714, 422 (1982). For drug sensitivity studies these organisms were grown in 10 ml of their respective media in 25 cm^2 tissue culture flasks. Cultures were inoculated to a cell density of […] and incubated for 5 days at 26° C. in a 5% CO2 atmosphere. Final cell density was determined by counting the cells on a Coulter Counter (Model ZBI); control cultures reached a final density of ≈2·10^7 /ml.
(§3) Drug stock solutions were prepared by dissolving the compounds of the invention in 0.1N NaOH and adjusting the final concentration to 2 mg/ml based on extinction coefficient. Drug was added to respective culture media (<2% v/v) and the media filter sterilized. Doses effective against 50% (ED50) and 90% (ED90) were determined by triplicate counting of organisms exposed to various drug concentrations and determining a mean value. Results were expressed as a percentage control.

[5] = system: Trypanosoma gambiense; test: In vitro antiparasitic activity against Trypanosoma gambiense; type: cell-based; details: for IC50: Trypanosoma brucei, GAMBIENSE, 120 h, 5 days at 26° C., read-out: ED50 (the source's name)
Method: as §1, §2, §3

[6] = system: Giardia lamblia; test: In vitro antiparasitic activity against Giardia lamblia; type: cell-based; details: for IC50: Giardia duodenalis, 72 h, 3 days at 37° C., read-out: ED50 (the source's name); for relative activity against G. lamblia (in words): compared with compound 2
Method: as §1
(§4) Giardia lamblia (PI, ATCC #30888) and Trichomonas vaqinalis (ATCC #3301) were grown in modified TYI medium in 13×100 mm screw cap tubes as described in R. L. Berens and J. J. Marr, Biochem. Pharm., 35, 4191 (1986). Cultures were inoculated at a density of 10^4 and incubated for 3 days at 37° C.; control cultures reached densities of ≈1-2·10^6 for G. lamblia and ≈6-7·10^6 for T. vaqinalis. These parasites were counted by chilling tubes on ice for 30 min., then reading the optical density at 650 nm in a Gilford 300-N micro-sample spectrophotometer. Their cell number was obtained by comparing the absorbance to a standard curve constructed from numbers obtained by counting cells in a hemocytometer.
as §3

[7] = system: Trichomonas vaginalis; test: In vitro antiparasitic activity against Trichomonas vaginalis; type: cell-based; details: for IC50: Trichomonas vaginalis, 72 h, 3 days at 37° C., read-out: ED50 (the source's name)
Method: as §1, §4, §3

[8] = Toxicity to U937 cells; type: cell-based; details: human, u937 cells; @ 1μg/ml; read-out: % Control (U937 cells)
[9] = system: U937 cells; test: Toxicity to U937 cells; type: cell-based; details: 1μg/ml
[10] = system: T. brucei EATRO 110; test: Antiparasitic activity against T. brucei EATRO 110 in animals (mouse model); type: in vivo, Trypanosoma brucei; details: mice; for % Cured / Average Survival / Range of Survival: once daily for 3 days
Method: Antiparasitic activity of the compounds of the invention in animals against T. brucei EATRO 110 was determined as described in C. J. Bacchi, R. L. Berens, H. C. Nathan, R. S. Klein, I. A. Elegbe, K. V. Rao, P. P. McCann and J. J. Marr, Antimicrob: Agents Chemother., 31, 1403 (1987) utilizing the mouse model described therein.
Mice (groups of 5) were infected with 2 × 10^5 trypanosomes and
treatment commenced 24 h post inoculation. Drugs were given once daily by
the route indicated for 3 days.

[11] = system: Leishmania donovani, Trypanosoma qambiense, Giardia lamblia and Trichomonas vaqinalis; test: In vitro antiparasitic activity against various pathogens (overall); type: cell-based; details: compounds 2, 3 and 4 compared
Method: as §1
Leishmania donovani (ATCC #30142)) and Trypanosoma qambiense (TH114, obtained from R. Brun, Schweizer Tropeninstitut, Basel, Switzerland) were grown in THOSMEM, HOSMEM and PPDM-79 media respectively as described in J. J. Marr, R. L. Berens and D. J. Nelson, J. Science. 202, 1018 (1978), J. J. Marr, D. J. Nelson and R. L. Berens, Biochim. Biophys. […] Final cell density was determined by counting the cells on a Coulter Counter (Model ZBI); control cultures reached a final density of ≈2·10^7 /ml.
as §4, with “Cultures were inoculated at a density of 10^4 and incubated for 3 days at 37° C.; control cultures reached densities of ≈1-2·10^6 for G. lamblia and ≈6-7·10^6 for T. vaqinalis.” left out, “hemocytometer. […]” for “hemocytometer.”

[12] = system: adenosine kinase; details: certain human cell lines in-vitro; cited from earlier work
[13] = background; cited from earlier work; remark: listed apart in the source

Nc1ncnc2c1ncn2[C@@H]1O[C@H](COS(N)(=O)=O)[C@@H](O)[C@H]1O [5'-O-sulfamoyl adenosine]
antiparasitic activity (in words) [1]: active in-vitro against certain parasites
toxicity (in words) [2]: extremely toxic

O.O.O.O.O.O.O.O.O.O=C([O-])[C@@H]1[O][Sb](=[O])([O][Sb]2(=[O])[O][C@H]([C@H](O)CO)[C@H](O)[C@H](C(=O)[O-])[O]2)[O][C@H]([C@H](O)CO)[C@@H]1O.[Na+].[Na+].[Na+] (stereo partly drawn) [Pentostam, reference compound]
LDUs in Liver ([3]; 50 mg/kg/day, intraperitoneal): 411 ± 245 LDUs
Suppression (%) ([3]; 50 mg/kg/day, intraperitoneal): 73%

NC(=S)c1ncn([C@@H]2O[C@H](COS(N)(=O)=O)[C@@H](O)[C@H]2O)n1 [Compound 3, 1-(5'-O-Sulfamoyl-β-D-ribofuranosyl)[1,2,4]triazole-3-thiocarboxamide]
IC50 [4]: 2.5 µg/mL (≈ 7.37 µM)
IC50 [5]: 0.5 µg/mL (≈ 1.47 µM)
IC50 [6]: > 25 µg/mL
relative activity against G. lamblia (in words) [6]: about the same as for compound 2
IC50 [7]: 15 µg/mL (≈ 44.2 µM)
relative activity against T. vaginalis (in words) ([7]; compared with compounds 2 or 4): greater activity; also recorded: greater activity than compounds 2 or 4

NC(=O)c1ncn([C@@H]2O[C@H](COS(N)(=O)=O)[C@@H](O)[C@H]2O)n1 [Compound 2, 1-(5'-O-Sulfamoyl-β-D-ribofuranosyl)[1,2,4]triazole-3-carboxamide]
antileishmanial activity in vitro (in words) [4]: significant activity as an antileishmanial agent
IC50 [4]: 0.03 µg/mL (≈ 0.0928 µM)
activity against T. gambiense (in words) [5]: shows antitrypanosomal activity; also recorded: killed by low concentrations
IC50 [5]: 0.01 to 0.05 µg/mL (≈ 0.0309 to 0.155 µM)
IC50 [6]: 5 to 10 µg/mL (≈ 15.5 to 30.9 µM)
IC50 [7]: > 25 µg/mL
viability [8]: 10%
toxicity to U937 cells (in words) [9]: toxic
% Cured ([10]; 1 mg/kg (i.p.)): 0%
Average Survival ([10]; 1 mg/kg (i.p.)): 4.6 days
Range of Survival ([10]; 1 mg/kg (i.p.)): 4 to 5 days
% Cured ([10]; 5 mg/kg (i.p.)): 0%
Average Survival ([10]; 5 mg/kg (i.p.)): 4.8 days
Range of Survival ([10]; 5 mg/kg (i.p.)): 4 to 6 days
% Cured ([10]; 10 mg/kg (i.p.)): 0%
Average Survival ([10]; 10 mg/kg (i.p.)): 7.4 days
Range of Survival ([10]; 10 mg/kg (i.p.)): 4 to 11 days
% Cured ([10]; 20 mg/kg (i.p.)): 0%
Average Survival ([10]; 20 mg/kg (i.p.)): 7.4 days
Range of Survival ([10]; 20 mg/kg (i.p.)): 4 to 11 days
% Cured ([10]; 50 mg/kg (i.p.)): 0%
Average Survival ([10]; 50 mg/kg (i.p.)): 6.4 days
Range of Survival ([10]; 50 mg/kg (i.p.)): 4 to 10 days
% Cured ([10]; 50 mg/kg (i.v.)): 0%
Average Survival ([10]; 50 mg/kg (i.v.)): 6.4 days
Range of Survival ([10]; 50 mg/kg (i.v.)): 4 to 12 days
% Cured ([10]; 50 mg/kg (p.o.)): 0%
Average Survival ([10]; 50 mg/kg (p.o.)): 11.6 days
Range of Survival ([10]; 50 mg/kg (p.o.)): 10 to 14 days
activity against T. brucei in animals (in words) ([10]; i.p., i.v., oral): exhibits this activity when administered orally; also recorded: shows intraperitoneal, intravenous and oral activity; also recorded: oral activity of compound 2 is greater than intraperitoneal activity; also recorded: prolonged survival at all dosages tested
LDUs in Liver ([3]; 10 mg/kg/day, gavage): 1244 ± 469 LDUs
Suppression (%) ([3]; 10 mg/kg/day, gavage): 18%
LDUs in Liver ([3]; 20 mg/kg/day, gavage): 765 ± 133 LDUs
Suppression (%) ([3]; 20 mg/kg/day, gavage): 50%
LDUs in Liver ([3]; 50 mg/kg/day, gavage): 501 ± 276 LDUs
Suppression (%) ([3]; 50 mg/kg/day, gavage): 67%
antileishmanial activity in animals (in words) ([3]; compared with Pentostam): good suppression of the parasites in the livers; also recorded: response equivalent to that of optimized Pentostam; also recorded: as active as Pentostam; also recorded: as active as pentavalent antimony
relative antiparasitic activity in vitro (in words) [11]: the most active and had the lowest ED50 against these organisms

NC(=O)c1ncn([C@@H]2O[C@H](CO)[C@@H](O)[C@H]2O)n1 [Ribavirin, 1-(β-D-Ribofuranosyl)[1,2,4]triazole-3-carboxamide]
antiparasitic activity (in words) [1]: does not have antiparasitic activity
toxicity (in words) [2]: relatively non-toxic
substrate for adenosine kinase (in words) [12]: substrate for adenosine kinase
antiviral activity (in words) [13]: broad spectrum antiviral agent

N#Cc1ncn([C@@H]2O[C@H](COS(N)(=O)=O)[C@@H](O)[C@H]2O)n1 [Compound 4, 1-(5'-0-Sulfamoyl-β-D-ribofuranosyl)[1,2,4]triazole-3-carbonitrile]
IC50 [4]: 1 to 5 µg/mL (≈ 3.28 to 16.4 µM)
IC50 [5]: 1 to 5 µg/mL (≈ 3.28 to 16.4 µM)
IC50 [6]: > 25 µg/mL
relative activity against G. lamblia (in words) [6]: about the same as for compound 2
IC50 [7]: > 25 µg/mL

From patent US4992426A, “Antiparasitic 5'-sulfamoyl nucleosides” (Nucleic Acid Research Institute, priority 1989, dated 1991)
